# Source: US7087722B1, “Fibrin binding domain polypeptides and uses and methods of producing same” (Savient Pharmaceuticals, Inc., priority 1988, dated 2006)
# Assays:
# [1] = tested on: clotting of citrated healthy human plasma by thrombin; test: Plasma Thrombin Time (TT), clotting of citrated healthy human plasma; format: biochemical; details: 1 mM spermidine; for "TT" Values (%): no addition: 100
# Procedure: The effect of the r31 kD polypeptide on clotting of whole blood was measured using the clinical laboratory parameter defined as Thrombin-Time. In this reaction aliquots of 100 μl citrated healthy human plasma were mixed with 100 μl PBS and either the transglutaminase inhibitor spermidine, or with reduced-carboxyamidated p31 kD or reoxidized-refolded r31 kD. 200 μl thrombin solution was added to each aliquot while continuously mixing. The time from the addition of the thrombin to the formation of clot was measured, and is expressed as “TT” in seconds (Table B).
# [2] = biological target: T1, guinea-pig liver transglutaminase (Sigma) (UniProt P08587); test: Binding of 125I-r31 kD FBD to extracellular matrix (ECM) of endothelial cells in the presence of exogenous transglutaminase; format: biochemical; details: 0.3 μM 125I-r31 kD FBD; 3 mM CaCl2; 0.02 units/ml transglutaminase; 45 minutes
# T1 construct: purchased Sigma; host or cells: guinea-pig liver
# T1 sequence (P08587 2-690): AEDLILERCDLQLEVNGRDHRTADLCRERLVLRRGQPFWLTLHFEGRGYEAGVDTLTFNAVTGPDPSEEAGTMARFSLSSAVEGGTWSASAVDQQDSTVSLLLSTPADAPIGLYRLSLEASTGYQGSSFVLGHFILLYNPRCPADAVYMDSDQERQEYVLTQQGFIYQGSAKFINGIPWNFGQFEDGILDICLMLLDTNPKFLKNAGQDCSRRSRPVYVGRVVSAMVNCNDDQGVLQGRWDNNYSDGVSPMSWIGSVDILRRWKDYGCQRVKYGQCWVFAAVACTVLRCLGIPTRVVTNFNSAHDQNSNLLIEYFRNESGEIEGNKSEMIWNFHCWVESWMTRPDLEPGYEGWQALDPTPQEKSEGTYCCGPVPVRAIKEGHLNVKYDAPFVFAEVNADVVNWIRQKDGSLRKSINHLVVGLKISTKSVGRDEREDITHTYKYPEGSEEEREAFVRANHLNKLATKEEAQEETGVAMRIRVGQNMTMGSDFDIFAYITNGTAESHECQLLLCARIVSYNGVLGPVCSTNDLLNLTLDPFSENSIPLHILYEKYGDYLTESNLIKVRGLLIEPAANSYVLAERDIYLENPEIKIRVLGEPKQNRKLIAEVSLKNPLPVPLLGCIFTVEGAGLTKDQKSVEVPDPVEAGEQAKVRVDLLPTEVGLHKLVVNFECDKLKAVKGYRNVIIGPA
# Procedure: FIG. 51. Binding of ^125I-r31 kD FBD to ECM in the presence of various constituents
# 0.3 μM of ^125I-r31 kD FBD was incubated with extracellular matrix of endothelial cells (ECM) as described by Eld r et al. (20) in a 37° C. CO2-incubator in the presence of saline, 3 mM CaCl2 and 0.02 units/ml of guinea-pig liver transglutaminase (TG) and other constituents as indicated in the figure. The control was done in the absence of transglutaminase.
# The reactions were terminated after 45 minutes by washing five times with PBS. Plates were extracted with a solution of 0.5% SDS and aliquots of the extracted material were measured in a gamma counter.
# The binding was now further characterized by examination of the binding of 0.3 μM ^125I-r31 kD FBD to ECM in the presence and absence of exogenous transglutaminase; additionally the binding in the presence of transglutaminase was examined in the presence of each of heparin, fibronectin or spermidine.
smiles,measurement,setting,value
NCCCCNCCCN [spermidine],"""TT"" Values (\)",[1]; thrombin conc. 1.25 (μ/ml),105
same,"""TT"" Values","[1]; thrombin conc. 1.25 (μ/ml), no addition: 55.4",114 s
same,"""TT"" Values (%)",[1]; thrombin conc. 1.25 (μ/ml),205%
same,"""TT"" Values (\)",[1]; thrombin conc. 2.5 (μ/ml),72
same,"""TT"" Values","[1]; thrombin conc. 2.5 (μ/ml), no addition: 25.5",44 s
same,"""TT"" Values (%)",[1]; thrombin conc. 2.5 (μ/ml),172%
same,effect on binding of r31 kD FBD to ECM in the presence of transglutaminase,[2],inhibits the binding
